Source: US12714706B2, “Methods of treating small cell lung cancer with lurbinectedin formulations” (PHARMA MAR, S.A., priority 2019, dated 2026)
Values after ≈ are worked out from the molar mass of the structure shown.

Legend:
advanced solid tumors = test: Lurbinectedin plus irinotecan trial: efficacy per tumor type (RECIST v1.1, PFS, OS); type: in vivo, human; settings: all doses
Excerpt: Secondary outcome measures included safety evaluation, peak plasma concentration (Cmax), area-under-the plasma concentration versus time curve (AUC), volume of distribution based on the terminal half-life (Vz), volume of distribution at steady state (Vss), clearance (CL), half-life (t½), evaluation of antitumor response (RECIST v1.1, start of treatment until PD, other antitumor therapy, death or until 12 months after the inclusion of the last evaluable patient in the study (end of study), whichever occurs first), progression-free survival (from the date of first infusion of study treatment to the date of progression or death or until 12 months after end of study, whichever occurs first), and overall survival (from the date of first infusion to study treatment to the date or death or until 12 months after end of study, whichever occurs first).
Encouraging activity has been observed in patients with SOLO, including some cases as third line treatment. Signals of activity were also observed in endometrial carcinoma and soft tissue sarcoma (STS) and glioblastoma (GBM). Consequently, a Phase II expansion at the RD to further explore efficacy and safety in SOLO, GBM, STS, and endometrial carcinoma. A total of […] patients were treated at the RD, including n=15 SOLO, n=11 endometrial cancer, n=10 STS, and n=20 GBM patients.

SCLC = test: Phase 2 trial of lurbinectedin monotherapy in SCLC: antitumor activity (ORR, DOR, PFS, OS; RECIST v1.1); type: in vivo, human
Method: A clinical study of lurbinectedin monotherapy for patients collectively afflicted with SCLC who have refractory or resistant disease, as defined herein, was carried out. In this clinical single-arm, multi-center, open-label, phase 2 trail, a cohort of 105 patients, who had measurable disease, including patients whose SCLC was unresponsive to first-line platinum-containing chemotherapy (cisplatin, carboplatin or oxaliplatin) (refractory) and patients whose SCLC recurred within or equal to 90 days after cessation of first-line therapy (resistant), were treated with lurbinectedin at a dosage of 3.2 mg/m^2 given intravenously over a period of 1 hour every 21 days. Lurbinectedin was provided as a sterile isotonic aqueous solution for IV infusion as described below.
Starting dose was 3.2 mg/m^2. Dose was capped at body surface area of […] (e.g. dose not allowed to exceed 6.4 mg). Patients received lurbinectedin i.v. as a one-hour infusion on Day 1 every three weeks until disease progression or unacceptable toxicity. Three weeks was defined as one treatment cycle.
The primary objective of this study was to assess the antitumor activity of lurbinectedin in terms of overall response rate (ORR) as primary endpoint and supported by duration of response (DOR) as secondary endpoint. ORR was assessed using RECIST v1.1. on a set of measurable lesions identified at baseline as target lesions or as non-target lesions (if any), and followed until disease progression (PD) by an appropriate method.
Radiological tumor assessment (CT scan or MRI) was performed at baseline, and every 6 weeks from the onset of the study treatment until cycle 6 or evidence of PD, and every 9 weeks thereafter. If an objective response was observed, according to RECIST v1.1., it had to be confirmed by the same method at least four weeks after the date of the first documentation of response.
ORR was defined as the percentage of evaluable patients with a confirmed response, either complete (CR) or partial response (PR), from the start of treatment to the date of progression or the start of a subsequent therapy or end of patients follow-up according to RECIST v1.1. DOR was calculated […], recurrence, or death due to any cause in the responder patients. The date of response, the date of radiological or clinical PD, according to the investigator assessment and the independent assessment by an independent review committee (IRC), and the date of death was registered and documented, as appropriate. The IRC determined the patient's best response and assigned the date of first documentation of response and progression/censoring according to RECIST v1.1.
Counts and percentages, with their corresponding exact 95% confidence intervals were calculated for the binominal endpoints (i.e. ORR, clinical benefit). Time-to-event variables (OS, PFS, and DOR) and their set time estimates (i.e. PFS4/6 and OS6/12) were analyzed according to Kaplan-Meier method. The evaluation of the efficacy endpoints evaluated by IA and IRC were analyzed and compared.

[1] = chemotherapy-free interval less than 90 days (resistant)

COc1ccc2[nH]c3c(c2c1)CCN[C@]31CS[C@@H]2c3c(OC(C)=O)c(C)c4c(c3[C@H](COC1=O)N1[C@@H]2[C@H]2c3c(cc(C)c(OC)c3O)C[C@@H]([C@@H]1O)N2C)OCO4 [lurbinectedin, Lurbinectedin]
CBR (ORR + SD >4 mo) (advanced solid tumors; Endometrial (n = 10 evaluable)): 60%
DCR (ORR + SD) (advanced solid tumors; Endometrial (n = 10 evaluable)): 100%
Median DoR (advanced solid tumors; Endometrial (n = 10 evaluable)): 4.6 mo
Median PFS (advanced solid tumors; Endometrial (n = 10 evaluable)): 7.1 mo
ORR* (PR) (advanced solid tumors; Endometrial (n = 10 evaluable)): 3 (30) n(%)
PFS rate at 6 mo (advanced solid tumors; Endometrial (n = 10 evaluable)): 50%
CBR (ORR + SD >4 mo) (advanced solid tumors; GBM (n = 16 evaluable)): 18.8%
DCR (ORR + SD) (advanced solid tumors; GBM (n = 16 evaluable)): 43.8%
Median PFS (advanced solid tumors; GBM (n = 16 evaluable)): 1.4 mo
ORR* (PR) (advanced solid tumors; GBM (n = 16 evaluable)): 1 (6.3) n(%)
PFS rate at 6 mo (advanced solid tumors; GBM (n = 16 evaluable)): 7.1%
CBR (ORR + SD >4 mo) (advanced solid tumors; SCLC (n = 13 evaluable)): 76.9%
DCR (ORR + SD) (advanced solid tumors; SCLC (n = 13 evaluable)): 84.6%
Median DoR (advanced solid tumors; SCLC (n = 13 evaluable)): 4.6 mo
Median PFS (advanced solid tumors; SCLC (n = 13 evaluable)): 4.3 mo
ORR* (PR) (advanced solid tumors; SCLC (n = 13 evaluable)): 9 (69.2) n(%)
PFS rate at 6 mo (advanced solid tumors; SCLC (n = 13 evaluable)): 36.3%
CBR (ORR + SD >4 mo) (advanced solid tumors; STS (n = 10 evaluable)): 40%
DCR (ORR + SD) (advanced solid tumors; STS (n = 10 evaluable)): 80%
Median PFS (advanced solid tumors; STS (n = 10 evaluable)): 2.6 mo
ORR* (PR) (advanced solid tumors; STS (n = 10 evaluable)): 0 n(%)
PFS rate at 6 mo (advanced solid tumors; STS (n = 10 evaluable)): 33.8%
solubility (physchem; sodium acetate buffer, pH 3, aqueous buffer): 950 µg/mL (≈ 1210 µM)
solubility (physchem; sodium acetate buffer, pH 4, aqueous buffer): 940 µg/mL (≈ 1200 µM)
solubility (physchem; sodium acetate buffer, pH 5, aqueous buffer): 30 µg/mL (≈ 38.2 µM)
solubility (physchem; sodium citrate buffer, pH 3, aqueous buffer): 940 µg/mL (≈ 1200 µM)
solubility (physchem; sodium citrate buffer, pH 4, aqueous buffer): 930 µg/mL (≈ 1180 µM)
solubility (physchem; sodium citrate buffer, pH 5, aqueous buffer): 500 µg/mL (≈ 637 µM)
solubility (physchem; sodium lactate buffer, pH 3, aqueous buffer): 940 µg/mL (≈ 1200 µM)
solubility (physchem; sodium lactate buffer, pH 4, aqueous buffer): 900 µg/mL (≈ 1150 µM)
solubility (physchem; sodium lactate buffer, pH 5, aqueous buffer): 30 µg/mL (≈ 38.2 µM)
solubility (physchem; sodium succinate buffer, pH 3, aqueous buffer): 960 µg/mL (≈ 1220 µM)
solubility (physchem; sodium succinate buffer, pH 4, aqueous buffer): 970 µg/mL (≈ 1240 µM)
solubility (physchem; sodium succinate buffer, pH 5, aqueous buffer): 40 µg/mL (≈ 51 µM)
Median overall survival of patients with initial objective response (post-hoc) (SCLC; 37 responders, overall population): 12.6 months
Duration of response, median (SCLC; IRC assessment, overall): 5.1 months
Overall response rate (CR + PR) (SCLC; Investigator assessment, resistant disease (CTFI <90 days, n = 45)): 22.2%
Patients alive at 1 year after the first dose (SCLC; chemotherapy-free interval less than 90 days (n = 45)): 16%
Median overall survival (SCLC; [1]): 5.0 months
Median progression-free survival (SCLC; [1]): 2.6 months
Disease progression with new lesions in the CNS (SCLC; of 94 patients who discontinued lurbinectedin): 9%
Median overall survival of patients with initial objective response (post-hoc) (SCLC; responders with resistant disease): 10.9 months
